Reference: ChEMBL document CHEMBL4651402, “Screening of ~5500 FDA-approved drugs and clinical candidates for anti-SARS-CoV-2 activity” (2021)
Counter-ions that a name gives are not always drawn.

Test system: SARS-CoV-2
Test: microbe, parasite or virus in culture
Conditions: Severe acute respiratory syndrome coronavirus 2, Vero C1008, 48 h

SMILES | IC50 [µM] | IC50 (read-out: pIC50 (converted)) [µM]
Cn1c(Nc2ccc(C(F)(F)F)cc2)nc2cc(Oc3ccnc(-c4ncc(C(F)(F)F)[nH]4)c3)ccc21 [RAF-265] | > 20 | > 20
CC(=O)N[C@@H](CC(=O)N[C@H](CCC(=O)O)C(=O)O)C(=O)O | > 20 | > 20
CCOC(=O)OC(C)OC(=O)[C@@H]1N2C(=O)[C@@H](NC(=O)[C@H](N)c3ccccc3)[C@H]2SC1(C)C (stereo partly drawn) [BACAMPICILLIN] | > 20 | > 20
OC(CCN1CCCCC1)(c1ccccc1)C1C[C@@H]2C=C[C@H]1C2 (stereo partly drawn) | > 20 | > 20
c1cnc2c(c1)CC1(CN3CCC1CC3)O2 (stereo not drawn) | > 20 | > 20
CCCN(CCC)CCc1cccc2c1CC(=O)N2 [ROPINIROLE] | > 20 | > 20
O=C(c1cccnc1)N1CCOCC1 [NICOPHOLINE] | > 20 | > 20
COc1c(N2CCC/C(=C(\F)CN)C2)c(F)cc2c(=O)c(C(=O)O)cn(C3CC3)c12 [ACORAFLOXACIN] | > 20 | > 20
CCCCCCCCc1ccc(CCC(N)(CO)CO)cc1 [FINGOLIMOD] | > 20 | > 20
CCCCCCC1C(=O)O[C@H](C)[C@H](NC(=O)c2cccc(NC=O)c2O)C(=O)O[C@@H](C)[C@@H]1OC(=O)CC(C)C (stereo partly drawn) | > 20 | > 20
Nc1c2c(nc3c1CCC3)CCCC2 [IPIDACRINE] | > 20 | > 20
CCCN(CCC)S(=O)(=O)c1ccc(C(=O)O)cc1 [PROBENECID] | > 20 | > 20
CCCCCC(O)c1cccc(OCc2ccc3ccccc3n2)c1 (stereo not drawn) [REV-5901] | > 20 | > 20
CO[C@@]1(NC(=O)Cc2cccs2)C(=O)N2C(C(=O)O)=C(COC(N)=O)CS[C@@H]21 [CEFOXITIN] | > 20 | > 20
CC[C@H]1OC(=O)[C@H](C)[C@@H](O[C@H]2C[C@@](C)(OC)[C@@H](O)[C@H](C)O2)[C@H](C)[C@@H](O[C@@H]2O[C@H](C)C[C@H](N(C)C)[C@H]2O)[C@](C)(O)C[C@@H](C)C(=O)[C@H](C)[C@@H](O)[C@]1(C)O [ERYTHROMYCIN] | > 20 | > 20
COc1ccccc1N1CCN(CCCC(=O)c2ccc(F)cc2)CC1 [FLUANISONE] | > 20 | > 20
C[C@H](Cc1ccc2c(c1)OC(C(=O)O)(C(=O)O)O2)NC[C@H](O)c1cccc(Cl)c1 | > 20 | > 20
COc1ccc2c3c1O[C@H]1[C@@H](OC(C)=O)C=C[C@H]4[C@@H](C2)N(C)CC[C@@]341 | > 20 | > 20
Nc1cccc2c1C(=O)c1cccc(N)c1C2=O | > 20 | > 20
Cn1cc(-c2cccc3cc(C(=O)NC(=N)N)ccc23)cn1 | > 20 | > 20
CC(=O)NC(=O)c1ccccc1O [SALACETAMIDE] | > 20 | > 20
Cn1c(=O)c2c(ncn2CCOC(=O)C(C)(C)Oc2ccc(Cl)cc2)n(C)c1=O [THEOFIBRATE] | > 20 | > 20
Cc1nc2ccccc2n1Cc1ccc(Cl)cc1 [CHLORMIDAZOLE] | > 20 | > 20
NC(=O)C1c2ccccc2C=Cc2ccccc21 [CITENAMIDE] | > 20 | > 20
CC1CCc2cc(F)cc3c(=O)c(C(=O)O)cn1c23 (stereo not drawn) [FLUMEQUINE] | > 20 | > 20

SMILES | IC50 [µM] | IC50 (read-out: pIC50 (converted)) [µM]
C[C@@H](c1ncncc1F)[C@](O)(Cn1cncn1)c1ccc(F)cc1F [VORICONAZOLE] | > 20 | > 20
CCCC[C@@]1(CC)CS(=O)(=O)c2cc(CNC(CC(=O)O)CC(=O)O)c(OC)cc2[C@H](c2ccccc2)N1 | > 20 | > 20
N[C@@H](Cc1cc(Br)c(O)c(Br)c1)C(=O)O [DIBROMOTYROSINE] | > 20 | > 20
NS(=O)(=O)c1cc2c(cc1Cl)N=CNS2(=O)=O [CHLOROTHIAZIDE] | > 20 | > 20
Cn1c(=O)cc(N2CCC[C@@H](N)C2)n(Cc2ccccc2C#N)c1=O [ALOGLIPTIN] | > 20 | > 20
NC(COP(=O)(O)O)C(=O)O (stereo not drawn) | > 20 | > 20
CCCCOc1ccc(OCCCN2CCOCC2)cc1 [PRAMOXINE] | > 20 | > 20
NCCO [MONOETHANOLAMINE] | > 20 | > 20
CCCCN1CCC(CNC(=O)c2c3n(c4ccccc24)CCCO3)CC1 [PIBOSEROD] | > 20 | > 20
OB1OCc2cc(F)ccc21 [TAVABOROLE] | > 20 | > 20
CN(C)N=Nc1ccc(C(=O)O)cc1 | > 20 | > 20
O=C1NC(=O)C(=O)C(=O)N1 [ALLOXAN] | > 20 | > 20
COc1cc(/C=C/c2ccc(O)cc2)cc(OC)c1 [PTEROSTILBENE] | > 20 | > 20
NC(=O)c1[nH]cnc1N | > 20 | > 20
O=C1CCC(N2C(=O)c3ccccc3C2=O)C(=O)N1 (stereo not drawn) [THALIDOMIDE] | > 20 | > 20
N/C(=N\C(=O)c1nc(Cl)c(N)nc1N)NCc1ccccc1 [BENZAMIL] | > 20 | > 20
NS(=O)(=O)c1cc2c(cc1Cl)N=C(CSCc1ccccc1)NS2(=O)=O [BENZTHIAZIDE] | > 20 | > 20
Cc1ccc(S(=O)(=O)NC(=O)NN2CCCCCC2)cc1 [TOLAZAMIDE] | > 20 | > 20
COc1cc2c(Oc3ccc(NC(=O)C4(C(=O)Nc5ccc(F)cc5)CC4)cc3F)ccnc2cc1OCCCN1CCOCC1 [FORETINIB] | > 20 | > 20
C[C@H](N[C@@H](CCc1ccccc1)C(=O)O)C(=O)N1Cc2ccccc2C[C@H]1C(=O)O | > 20 | > 20
CC1CC(OC(=O)C(O)c2ccccc2)CC(C)(C)C1 (stereo not drawn) [CYCLANDELATE] | > 20 | > 20
CC(NCCc1ccc(O)cc1)C(O)c1ccc(O)cc1 (stereo not drawn) [RITODRINE HYDROCHLORIDE] | > 20 | > 20
CN1C(=O)/C(=N/NC(N)=S)c2ccccc21 | > 20 | > 20
O=C(O)COCCN1CCN(C(c2ccccc2)c2ccc(Cl)cc2)CC1 (stereo not drawn) [CETIRIZINE] | > 20 | > 20
C[C@H]1O[C@H](OC[C@@H]2O[C@H](Oc3c(-c4ccc(O)c(O)c4)oc4cc(O)cc(O)c4c3=O)[C@@H](O)[C@H](O)[C@H]2O)[C@@H](O)[C@@H](O)[C@@H]1O | > 20 | > 20

SMILES | IC50 [µM] | IC50 (read-out: pIC50 (converted)) [µM]
ClC1C(Cl)C(Cl)C(Cl)C(Cl)C1Cl (stereo not drawn) | > 20 | > 20
c1ccc(CC2=NCCN2)cc1 [TOLAZOLINE] | > 20 | > 20
Brc1c(NC2=NCCN2)ccc2nccnc12 [BRIMONIDINE] | > 20 | > 20
C[C@]12CCC(=O)C[C@@H]1CC[C@@H]1[C@@H]2CC[C@]2(C)[C@@H](O)CC[C@@H]12 [STANOLONE] | > 20 | > 20
CC(=O)c1cc2c(o1)C(=O)c1ccccc1C2=O [NAPABUCASIN] | > 20 | > 20
C[C@H](CCC(=O)O)[C@H]1CC[C@H]2[C@@H]3[C@@H](O)C[C@@H]4C[C@H](O)CC[C@]4(C)[C@H]3C[C@H](O)[C@]12C | > 20 | > 20
COc1cc2[nH]c(C)c(CCN3CCN(c4ccccc4OC)CC3)c2cc1OC [MILIPERTINE] | > 20 | > 20
CC1=CC(=O)C2=C(C)C[C@H](O)[C@@H]3[C@H](OC(=O)[C@H]3C)[C@@H]12 [AUSTRICIN] | > 20 | > 20
CC12CCC3C4CCC(O)CC4=CCC3C1CCC2O (stereo not drawn) | > 20 | > 20
CCC(C(=O)OCCN(CC)CC)c1ccccc1 (stereo not drawn) [BUTETAMATE] | > 20 | > 20
CCN(CC)CC(OC(=O)c1ccccc1)c1ccccc1 (stereo not drawn) [ELUCAINE] | > 20 | > 20
CCOCN1C2=C(C(=O)Nc3ccccc3F)C(=O)CCN2c2ccc(F)cc21 | > 20 | > 20
CC1(C)CNc2cc(NC(=O)c3cccnc3NCc3ccncc3)ccc21 [MOTESANIB] | > 20 | > 20
OC[C@H]1O[C@@H]2O[C@H]3[C@H](O)[C@@H](O)[C@@H](O[C@H]4[C@H](O)[C@@H](O)[C@@H](O[C@H]5[C@H](O)[C@@H](O)[C@@H](O[C@H]6[C@H](O)[C@@H](O)[C@@H](O[C@H]7[C@H](O)[C@@H](O)[C@@H](O[C@H]8[C@H](O)[C@@H](O)[C@@H](O[C@H]1[C@H](O)[C@H]2O)O[C@@H]8CO)O[C@@H]7CO)O[C@@H]6CO)O[C@@H]5CO)O[C@@H]4CO)O[C@@H]3CO [BETADEX] | > 20 | > 20
CC[C@H](Nc1ncnc2[nH]cnc12)c1nc2cccc(F)c2c(=O)n1-c1ccccc1 [IDELALISIB] | > 20 | > 20
O=C(Oc1ccc(Br)cc1)N1CCN2CCC1CC2 [SSR180711] | > 20 | > 20
NC1(C(=O)N[C@@H](CCO)c2ccc(Cl)cc2)CCN(c2nc[nH]c3nccc2-3)CC1 [CAPIVASERTIB] | > 20 | > 20
COc1c2occc2cc2ccc(=O)oc12 [METHOXSALEN] | > 20 | > 20
CCOc1ccccc1O[C@@H](c1ccccc1)[C@H]1CNCCO1 | > 20 | > 20
Cc1nc(=O)c(C#N)c(NCc2cccnc2)[nH]1 [PELRINONE] | > 20 | > 20
CC(O)(C(=O)Nc1ccc(C(=O)c2ccccc2)cc1)C(F)(F)F (stereo not drawn) | > 20 | > 20
CC(C)(N)Cc1ccccc1 [PHENTERMINE] | > 20 | > 20
CN(C)CCC(c1ccc(Cl)cc1)c1ccccn1 (stereo not drawn) [CHLORPHENIRAMINE] | > 20 | > 20
C[C@@H](N)c1ccc(C(=O)Nc2ccnc3[nH]ccc23)cc1 [Y-39983] | > 20 | > 20
